This assay addresses bovine cardiac myofibrils (full-length cardiac myosin ATPase in the native sarcomere) (Bos taurus (Bovine), UniProt Q9BE39). Kind of assay: Skinned bovine cardiac myofibril ATPase assay (PK/LDH-coupled). Format: biochemical. The settings on record: Ca2+ activating to 75% of maximal rate; for CDMF75 IC15: concentration giving 15% inhibition; for IC50: read-out: CDMF75 IC50. The method in brief:
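Triton-skinned bovine left-ventricle myofibrils (1 mg/mL) in PM 12 buffer (12 mM PIPES, 2 mM MgCl2, pH 6.8) with 50 μM ATP, 0.6 mM EGTA and CaCl2 set for 50% or 75% activation. Steady-state ATPase inhibition followed by PK/LDH-coupled NADH oxidation at 340 nm.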

Here are results for 29 compounds from US12065436B2, “Cardiac sarcomere inhibitors” (Cytokinetics, Inc., priority 2018, dated 2024).

A word on the IC50: it is the midpoint of a concentration-inhibition curve.

Sequence of bovine cardiac myofibrils (full-length cardiac myosin ATPase in the native sarcomere) (Q9BE39 whole entry): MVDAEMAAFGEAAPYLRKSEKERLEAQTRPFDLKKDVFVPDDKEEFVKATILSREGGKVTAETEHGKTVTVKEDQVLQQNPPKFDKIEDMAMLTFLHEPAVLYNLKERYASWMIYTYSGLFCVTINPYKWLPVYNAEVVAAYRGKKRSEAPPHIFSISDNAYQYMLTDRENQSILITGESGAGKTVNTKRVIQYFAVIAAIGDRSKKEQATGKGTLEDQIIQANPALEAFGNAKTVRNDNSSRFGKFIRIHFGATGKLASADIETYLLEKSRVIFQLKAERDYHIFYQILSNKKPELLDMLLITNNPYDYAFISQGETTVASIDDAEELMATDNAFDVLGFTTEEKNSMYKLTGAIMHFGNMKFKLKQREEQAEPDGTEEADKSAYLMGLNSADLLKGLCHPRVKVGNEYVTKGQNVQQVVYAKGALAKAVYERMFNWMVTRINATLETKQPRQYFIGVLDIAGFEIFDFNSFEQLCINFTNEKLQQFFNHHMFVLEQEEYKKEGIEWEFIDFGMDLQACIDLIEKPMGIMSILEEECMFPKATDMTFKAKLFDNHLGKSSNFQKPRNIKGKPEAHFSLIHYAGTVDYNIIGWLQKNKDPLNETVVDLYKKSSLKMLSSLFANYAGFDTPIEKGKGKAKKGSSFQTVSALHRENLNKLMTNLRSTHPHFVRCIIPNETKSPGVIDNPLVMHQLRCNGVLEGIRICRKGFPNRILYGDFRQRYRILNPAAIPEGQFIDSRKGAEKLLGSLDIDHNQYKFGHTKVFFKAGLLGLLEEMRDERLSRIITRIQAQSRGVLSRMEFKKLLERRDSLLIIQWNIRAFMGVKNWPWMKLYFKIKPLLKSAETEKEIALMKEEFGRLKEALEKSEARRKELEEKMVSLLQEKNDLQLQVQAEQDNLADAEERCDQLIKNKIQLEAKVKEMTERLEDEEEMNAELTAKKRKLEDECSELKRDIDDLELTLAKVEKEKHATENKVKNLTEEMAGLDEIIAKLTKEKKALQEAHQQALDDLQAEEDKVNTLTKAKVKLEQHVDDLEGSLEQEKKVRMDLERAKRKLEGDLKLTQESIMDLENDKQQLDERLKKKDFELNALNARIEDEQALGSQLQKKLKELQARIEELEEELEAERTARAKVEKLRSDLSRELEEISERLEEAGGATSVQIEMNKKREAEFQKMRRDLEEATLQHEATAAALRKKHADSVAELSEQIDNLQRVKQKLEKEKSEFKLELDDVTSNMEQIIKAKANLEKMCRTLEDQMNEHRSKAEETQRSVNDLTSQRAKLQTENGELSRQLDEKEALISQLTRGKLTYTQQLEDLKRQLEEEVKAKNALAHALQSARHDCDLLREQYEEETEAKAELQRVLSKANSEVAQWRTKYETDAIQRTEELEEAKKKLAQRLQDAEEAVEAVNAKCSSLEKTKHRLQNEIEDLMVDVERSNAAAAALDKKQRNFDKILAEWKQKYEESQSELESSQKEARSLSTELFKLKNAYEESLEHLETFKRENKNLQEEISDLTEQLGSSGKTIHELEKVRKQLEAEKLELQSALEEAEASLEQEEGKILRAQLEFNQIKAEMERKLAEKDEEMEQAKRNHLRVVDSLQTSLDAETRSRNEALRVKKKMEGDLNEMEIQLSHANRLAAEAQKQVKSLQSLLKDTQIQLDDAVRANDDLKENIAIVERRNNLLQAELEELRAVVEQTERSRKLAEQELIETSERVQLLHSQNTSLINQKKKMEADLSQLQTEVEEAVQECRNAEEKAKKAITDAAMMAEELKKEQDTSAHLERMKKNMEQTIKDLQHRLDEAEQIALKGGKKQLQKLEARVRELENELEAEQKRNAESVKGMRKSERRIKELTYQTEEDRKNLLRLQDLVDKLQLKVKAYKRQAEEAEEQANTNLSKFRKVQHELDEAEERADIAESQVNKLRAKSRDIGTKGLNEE
Sequence of bovine cardiac myofibrils (full-length cardiac myosin ATPase in the native sarcomere) (P85100 whole entry partner): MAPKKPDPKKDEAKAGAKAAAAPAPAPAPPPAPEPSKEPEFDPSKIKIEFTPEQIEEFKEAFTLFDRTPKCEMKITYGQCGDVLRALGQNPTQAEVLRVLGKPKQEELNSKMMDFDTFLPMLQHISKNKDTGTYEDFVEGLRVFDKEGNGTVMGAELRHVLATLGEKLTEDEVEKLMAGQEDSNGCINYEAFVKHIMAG
Sequence of bovine cardiac myofibrils (full-length cardiac myosin ATPase in the native sarcomere) (Q3SZE5 whole entry partner): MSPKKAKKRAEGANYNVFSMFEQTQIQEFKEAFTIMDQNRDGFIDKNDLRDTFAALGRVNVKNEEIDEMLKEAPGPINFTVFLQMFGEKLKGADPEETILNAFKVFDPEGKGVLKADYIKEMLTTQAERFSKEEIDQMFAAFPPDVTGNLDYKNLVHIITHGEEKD

In the case of `[2H]C([2H])([2H])c1nc(-c2ccc3c(c2)CC[C@H]3NC(=O)c2oncc2C)no1` [Compound 248, (R)-4-methyl-N-(5-(5-(methyl-d3)-1,2,4-oxadiazol-3-yl)-2,3-dihydro-1H-inden-1-yl)isoxazole-5-carboxamide], the “CDMF75 IC15” value was found to be 400 nM and the IC50 amounted to 1500 nM.
On the same counts, the results for `Cc1cc(C(=O)NC2COc3cc(-c4noc(C)n4)ccc32)ccn1` (stereo not shown) [Compound 18, 2-methyl-N-(6-(5-methyl-1,2,4-oxadiazol-3-yl)-2,3-dihydrobenzofuran-3-yl)isonicotinamide] are 1100 nM and 6800 nM.
Turning to `O=C(N[C@@H]1CCc2cc(-c3noc(C4CC4)n3)ccc21)OCC(F)F` [Compound 334, 2,2-difluoroethyl (R)-(5-(5-cyclopropyl-1,2,4-oxadiazol-3-yl)-2,3-dihydro-1H-inden-1-yl)carbamate], the “CDMF75 IC15” value amounted to 600 nM and the IC50 worked out at 1900 nM.
On the same counts, the results for `O=C(N[C@@H]1CCc2cc(-c3noc(C4CC4)n3)ccc21)OCC1CC1` [Compound 326, cyclopropylmethyl (R)-(5-(5-cyclopropyl-1,2,4-oxadiazol-3-yl)-2,3-dihydro-1H-inden-1-yl)carbamate] are 600 nM and 2400 nM.
Take `O=C(NC1CCc2cc(-c3noc(C(F)F)n3)ccc21)c1ocnc1C1CC1` (stereo not shown) [Compound 21, 4-cyclopropyl-N-(5-(5-(difluoromethyl)-1,2,4-oxadiazol-3-yl)-2,3-dihydro-1H-inden-1-yl)oxazole-5-carboxamide]: the “CDMF75 IC15” value was 700 nM and the concentration for half-maximal inhibition (IC50) was found to be 2900 nM.
Turning to `CCOC(=O)C(C)c1nc(-c2ccc3c(c2)CCC3NC(=O)c2cnc(C)o2)no1` (stereo not shown) [Compound 493, ethyl 2-(3-(1-(2-methyloxazole-5-carboxamido)-2,3-dihydro-1H-inden-5-yl)-1,2,4-oxadiazol-5-yl)propanoate], the “CDMF75 IC15” value was determined as 5600 nM and the IC50 was 21400 nM.
In the case of `Cc1cc(C(=O)N[C@@H]2CCc3cc(-c4nc(C)no4)ccc32)ccn1` [Compound 131, (R)-2-methyl-N-(5-(3-methyl-1,2,4-oxadiazol-5-yl)-2,3-dihydro-1H-inden-1-yl)isonicotinamide], the “CDMF75 IC15” value is 1400 nM and the IC50 came out at 5400 nM.
`CCc1nc(-c2ccc3c(c2)CC[C@H]3NC(=O)c2cc(CO)ccc2C)no1` [Compound 651, (R)-N-(5-(5-ethyl-1,2,4-oxadiazol-3-yl)-2,3-dihydro-1H-inden-1-yl)-5-(hydroxymethyl)-2-methylbenzamide]: the “CDMF75 IC15” value stood at 4600 nM and the IC50 was found to be 22600 nM.
For `CCc1nc(-c2ccc3c(c2)CC[C@H]3NC(=O)c2ccon2)no1` [Compound 586, (R)-N-(5-(5-ethyl-1,2,4-oxadiazol-3-yl)-2,3-dihydro-1H-inden-1-yl)isoxazole-3-carboxamide], the “CDMF75 IC15” value was 500 nM and the half-maximal inhibitory concentration (IC50) turned out to be 2300 nM.
On the same counts, the results for `CCc1nc(-c2ccc3c(c2)OC[C@H]3NC(=O)N2CC[C@@H](F)C2)no1` [Compound 743, (R)-N-((S)-6-(5-ethyl-1,2,4-oxadiazol-3-yl)-2,3-dihydrobenzofuran-3-yl)-3-fluoropyrrolidine-1-carboxamide] are 7400 nM and 36700 nM.
Turning to `Cc1nc(-c2cnc3c(c2)CCC3NC(=O)c2ccccc2)no1` (stereo not shown) [Compound 42, N-(3-(5-methyl-1,2,4-oxadiazol-3-yl)-6,7-dihydro-5H-cyclopental[b]pyridin-7-yl)benzamide], the “CDMF75 IC15” value amounted to 7200 nM and the IC50 stood at 31600 nM.
As to `Cc1nc(-c2ccc3c(c2)CCC3NC(=O)c2cnn(C)n2)no1` (stereo not shown) [Compound 44, 2-methyl-N-(5-(5-methyl-1,2,4-oxadiazol-3-yl)-2,3-dihydro-1H-inden-1-yl)-2H-1,2,3-triazole-4-carboxamide], the “CDMF75 IC15” value worked out at 3300 nM and the IC50 stood at 12300 nM.
For `COc1cc(C(=O)N[C@@H]2CCc3cc(-c4noc(C(F)F)n4)ccc32)on1` [Compound 680, (R)-N-(5-(5-(difluoromethyl)-1,2,4-oxadiazol-3-yl)-2,3-dihydro-1H-inden-1-yl)-3-methoxyisoxazole-5-carboxamide] the same measures were 500 nM and 1700 nM.
Take `Cc1n[nH]cc1C(=O)NC1CCc2cc(-c3noc(C(F)F)n3)ccc21` (stereo not shown) [Compound 69, N-(5-(5-(difluoromethyl)-1,2,4-oxadiazol-3-yl)-2,3-dihydro-1H-inden-1-yl)-3-methyl-1H-pyrazole-4-carboxamide]: the “CDMF75 IC15” value turned out to be 600 nM and the IC50 came to 2300 nM.
For the compound `O=C(N[C@@H]1CCc2cc(-c3noc(C(F)F)n3)ccc21)C1CCCO1` (stereo partly drawn) [Compound 293, N-((R)-5-(5-(difluoromethyl)-1,2,4-oxadiazol-3-yl)-2,3-dihydro-1H-inden-1-yl)tetrahydrofuran-2-carboxamide], the “CDMF75 IC15” value worked out at 20400 nM and the IC50 was over 39200 nM.
`CCc1nc(-c2ccc3c(c2)CC[C@H]3NC(=O)OCC2CC2)no1` [Compound 323, cyclopropylmethyl (R)-(5-(5-ethyl-1,2,4-oxadiazol-3-yl)-2,3-dihydro-1H-inden-1-yl)carbamate]: the “CDMF75 IC15” value came out at 300 nM and the IC50 came to 900 nM.
For `O=C(N[C@@H]1CCc2cc(-c3noc(C(F)F)n3)ccc21)c1ocnc1C(F)(F)F` [Compound 682, (R)-N-(5-(5-(difluoromethyl)-1,2,4-oxadiazol-3-yl)-2,3-dihydro-1H-inden-1-yl)-4-(trifluoromethyl)oxazole-5-carboxamide] the same measures were 400 nM and 1600 nM.
On to `CC(=O)N[C@@H]1COc2cc(-c3noc(C4(C)CC4)n3)ccc21` [Compound 461, (S)-N-(6-(5-(1-methylcyclopropyl)-1,2,4-oxadiazol-3-yl)-2,3-dihydrobenzofuran-3-yl)acetamide], for which the “CDMF75 IC15” value came out at 1300 nM and the IC50 is 6500 nM.
Turning to `CCc1nc(-c2ccc3c(c2)CC[C@H]3NC(=O)c2nnc(C)o2)no1` [Compound 618, (R)-N-(5-(5-ethyl-1,2,4-oxadiazol-3-yl)-2,3-dihydro-1H-inden-1-yl)-5-methyl-1,3,4-oxadiazole-2-carboxamide], the “CDMF75 IC15” value was determined as 300 nM and the IC50 turned out to be 1100 nM.
As for `CCc1nc(-c2ccc3c(c2)CC[C@H]3NC(=O)c2cnn(C)c2C)no1` [Compound 570, (R)-N-(5-(5-ethyl-1,2,4-oxadiazol-3-yl)-2,3-dihydro-1H-inden-1-yl)-1,5-dimethyl-1H-pyrazole-4-carboxamide], the “CDMF75 IC15” value was determined as 400 nM and the IC50 is 1400 nM.
With `Cc1cc(C(=O)N[C@@H]2CCc3cc(-c4nc(C)no4)ccc32)cnn1` [Compound 705, (R)-6-methyl-N-(5-(3-methyl-1,2,4-oxadiazol-5-yl)-2,3-dihydro-1H-inden-1-yl)pyridazine-4-carboxamide], the “CDMF75 IC15” value is 4900 nM and the IC50 was 28100 nM.
On the same counts, the results for `CCc1nc(-c2ccc3c(c2)CC[C@H]3NC(=O)c2ncoc2C)no1` [Compound 622, (R)-N-(5-(5-ethyl-1,2,4-oxadiazol-3-yl)-2,3-dihydro-1H-inden-1-yl)-5-methyloxazole-4-carboxamide] are 900 nM and 3600 nM.
For `COC(=O)N[C@@H]1CCc2cc(-c3noc(C(F)F)n3)ccc21` [Compound 282, methyl (R)-(5-(5-(difluoromethyl)-1,2,4-oxadiazol-3-yl)-2,3-dihydro-1H-inden-1-yl)carbamate] the same measures were 500 nM and 1900 nM.
Consider `Cc1nc(-c2ccc3c(c2)CCC3NC(=O)Nc2cncnc2)no1` (stereo not shown) [Compound 96, 1-(5-(5-methyl-1,2,4-oxadiazol-3-yl)-2,3-dihydro-1H-inden-1-yl)-3-(pyrimidin-5-yl)urea], for which the “CDMF75 IC15” value was found to be 3000 nM and the IC50 was found to be 13400 nM.
For `Cn1nccc1C(=O)N[C@@H]1CCc2cc(-c3noc(C4CCO4)n3)ccc21` (stereo partly drawn) [Compound 174, 1-methyl-N-((1R)-5-(5-(oxetan-2-yl)-1,2,4-oxadiazol-3-yl)-2,3-dihydro-1H-inden-1-yl)-1H-pyrazole-5-carboxamide], the “CDMF75 IC15” value is 1100 nM and the IC50 came to 3800 nM.
For `O=C(NC1CCc2cc(-c3noc(C(F)F)n3)ccc21)c1ccn[nH]1` (stereo not shown) [Compound 49, N-(5-(5-(difluoromethyl)-1,2,4-oxadiazol-3-yl)-2,3-dihydro-1H-inden-1-yl)-1H-pyrazole-5-carboxamide] the same measures were 9800 nM and over 39200 nM.
Consider `Cc1c(C(=O)N[C@@H]2CCc3cc(-c4nc(C5CC5)no4)ccc32)cnn1C` [Compound 259, (R)-N-(5-(3-cyclopropyl-1,2,4-oxadiazol-5-yl)-2,3-dihydro-1H-inden-1-yl)-1,5-dimethyl-1H-pyrazole-4-carboxamide], for which the “CDMF75 IC15” value was 800 nM and the IC50 came to 3000 nM.
For the compound `[2H]C([2H])([2H])c1nc(-c2ccc3c(c2)CC[C@H]3NC(=O)c2cnn(C)c2)no1` [Compound 244, (R)-1-methyl-N-(5-(5-(methyl-d3)-1,2,4-oxadiazol-3-yl)-2,3-dihydro-1H-inden-1-yl)-1H-pyrazole-4-carboxamide], the “CDMF75 IC15” value was found to be 1600 nM and the half-maximal inhibitory concentration (IC50) was 5400 nM.
Take `Cc1nc(-c2ccc3c(c2)CCC3NC(=O)Nc2cccnc2)no1` (stereo not shown) [Compound 62, 1-(5-(5-methyl-1,2,4-oxadiazol-3-yl)-2,3-dihydro-1H-inden-1-yl)-3-(pyridin-3-yl)urea]: the “CDMF75 IC15” value was 1500 nM and the half-inhibitory concentration (IC50) turned out to be 8700 nM.
